Data as given in the NIST ThermoML archive (doi:10.1016/j.tca.2007.04.012).

Experiments:
[1] = xn = mol fraction of the nth substance listed; details: 298.15 K, 101 kPa, Liquid, Vibrating tube method
[2] = excess molar enthalpy (molar enthalpy of mixing); xn = mol fraction of the nth substance listed; details: 298.15 K, 101 kPa, Liquid, Flow calorimetry
[3] = 298.15 K; 101.33 kPa; Liquid; Vibrating tube method

OCC(F)(F)F [2,2,2-trifluoroethanol] + CCO
Details	excess molar enthalpy [kcal/mol]	mass density [kg/m3]
[1], x1 = 0.00449	–	788
[1], x1 = 0.00898	–	791.1
[1], x1 = 0.02012	–	798.87
[1], x1 = 0.02992	–	805.61
[1], x1 = 0.04022	–	812.7
[1], x1 = 0.05208	–	820.82
[1], x1 = 0.1002	–	853.17
[1], x1 = 0.2003	–	918.54
[1], x1 = 0.3001	–	981.36
[1], x1 = 0.3999	–	1042.13
[1], x1 = 0.5003	–	1101.6
[1], x1 = 0.6012	–	1160.07
[1], x1 = 0.7025	–	1217.72
[1], x1 = 0.7851	–	1264.15
[1], x1 = 0.9109	–	1334.11
[1], x1 = 0.92	–	1339.16
[1], x1 = 0.9299	–	1344.65
[1], x1 = 0.9497	–	1355.58
[1], x1 = 0.9597	–	1361.14
[1], x1 = 0.9697	–	1366.65
[1], x1 = 0.9798	–	1372.26
[1], x1 = 0.9897	–	1377.67
[1], x1 = 1	–	1383.41
[2], x1 = 0.00586	-0.00471	–
[2], x1 = 0.0106	-0.00946	–
[2], x1 = 0.02013	-0.0193	–
[2], x1 = 0.03032	-0.0283	–
[2], x1 = 0.03992	-0.0369	–
[2], x1 = 0.04851	-0.0448	–
[2], x1 = 0.06244	-0.0517	–
[2], x1 = 0.07146	-0.0594	–
[2], x1 = 0.08127	-0.0666	–
[2], x1 = 0.09052	-0.0739	–
[2], x1 = 0.09891	-0.0797	–
[2], x1 = 0.199	-0.1256	–
[2], x1 = 0.2992	-0.1503	–
[2], x1 = 0.3995	-0.1603	–
[2], x1 = 0.5039	-0.157	–
[2], x1 = 0.6029	-0.1387	–
[2], x1 = 0.7014	-0.1179	–
[2], x1 = 0.7964	-0.08435	–
[2], x1 = 0.8945	-0.0468	–
[2], x1 = 0.9072	-0.0426	–
[2], x1 = 0.916	-0.0381	–
[2], x1 = 0.9278	-0.0345	–
[2], x1 = 0.9389	-0.0293	–
[2], x1 = 0.9516	-0.024	–
[2], x1 = 0.9618	-0.0199	–
[2], x1 = 0.9729	-0.0139	–
[2], x1 = 0.9826	-0.00901	–
[2], x1 = 0.992	-0.00356	–
[2], x1 = 0.9988	-0.000908	–

CO [methanol]
Details	mass density [kg/m3]
[3]	786.3

OCC(F)(F)F [2,2,2-trifluoroethanol]
Details	mass density [kg/m3]
[3]	1383.41

OCC(F)(F)F [2,2,2-trifluoroethanol] + CO
Details	excess molar enthalpy [kcal/mol]	mass density [kg/m3]
[1], x1 = 0.00435	–	790.62
[1], x1 = 0.00909	–	795.28
[1], x1 = 0.01555	–	801.57
[1], x1 = 0.01643	–	802.43
[1], x1 = 0.06693	–	849.62
[1], x1 = 0.1862	–	949.42
[1], x1 = 0.3191	–	1045.13
[1], x1 = 0.385	–	1087.8
[1], x1 = 0.4808	–	1144.91
[1], x1 = 0.5797	–	1198.76
[1], x1 = 0.6905	–	1253.74
[1], x1 = 0.8331	–	1317.38
[1], x1 = 0.9196	–	1352.57
[1], x1 = 0.9701	–	1372.13
[1], x1 = 0.9799	–	1375.89
[1], x1 = 0.9913	–	1380.01
[1], x1 = 0.9949	–	1381.47
[1], x1 = 1	–	1383.41
[2], x1 = 0.00548	-0.00519	–
[2], x1 = 0.01037	-0.00949	–
[2], x1 = 0.02045	-0.0191	–
[2], x1 = 0.02995	-0.0283	–
[2], x1 = 0.04012	-0.0376	–
[2], x1 = 0.04831	-0.0459	–
[2], x1 = 0.09938	-0.08521	–
[2], x1 = 0.1996	-0.1461	–
[2], x1 = 0.297	-0.1827	–
[2], x1 = 0.3988	-0.2023	–
[2], x1 = 0.4971	-0.2035	–
[2], x1 = 0.6027	-0.194	–
[2], x1 = 0.7098	-0.1616	–
[2], x1 = 0.8044	-0.1209	–
[2], x1 = 0.8929	-0.0647	–
[2], x1 = 0.9016	-0.0587	–
[2], x1 = 0.9113	-0.0538	–
[2], x1 = 0.9251	-0.0452	–
[2], x1 = 0.9337	-0.0388	–
[2], x1 = 0.9463	-0.0319	–
[2], x1 = 0.9602	-0.0246	–
[2], x1 = 0.9707	-0.0169	–
[2], x1 = 0.9838	-0.00875	–
[2], x1 = 0.9953	-0.0028	–
[2], x1 = 0.9987	-0.000645	–
